Assay results as given in ChEMBL document CHEMBL4507318, “Data for DCP probe BAY-985” (2021).

How the values were obtained:
[1] = molecular target: Serine/threonine-protein kinase PAK 3 (Homo sapiens) (UniProt O75914)
[2] = molecular target: Receptor tyrosine-protein kinase erbB-4 (Homo sapiens) (UniProt Q15303)
[3] = molecular target: Cyclin-dependent kinase 2 (Homo sapiens) (UniProt P24941)
[4] = molecular target: Serine/threonine-protein kinase LATS2 (Homo sapiens) (UniProt Q9NRM7)
[5] = molecular target: Serine/threonine-protein kinase 17B (Homo sapiens) (UniProt O94768)
[6] = molecular target: G protein-coupled receptor kinase 3 (Homo sapiens) (UniProt P35626)
[7] = molecular target: Megakaryocyte-associated tyrosine-protein kinase (Homo sapiens) (UniProt P42679)
[8] = molecular target: Serine/threonine-protein kinase Sgk1 (Homo sapiens) (UniProt O00141)
[9] = molecular target: Bone morphogenetic protein receptor type-1A (Homo sapiens) (UniProt P36894)
[10] = molecular target: Serine/threonine-protein kinase DCLK3 (Homo sapiens) (UniProt Q9C098)
[11] = molecular target: Muscarinic acetylcholine receptor M3 (Homo sapiens) (UniProt P20309); conditions: Compound concentration 10.0 uM
[12] = molecular target: Mitogen-activated protein kinase 13 (Homo sapiens) (UniProt O15264)
[13] = molecular target: Serine/threonine-protein kinase Sgk3 (Homo sapiens) (UniProt Q96BR1)
[14] = molecular target: RAC-alpha serine/threonine-protein kinase (Homo sapiens) (UniProt P31749)
[15] = molecular target: Serine/threonine-protein kinase 26 (Homo sapiens) (UniProt Q9P289)
[16] = molecular target: Cyclin-dependent kinase 3 (Homo sapiens) (UniProt Q00526)
[17] = molecular target: 3-phosphoinositide-dependent protein kinase 1 (Homo sapiens) (UniProt O15530)
[18] = molecular target: Cyclin-dependent kinase-like 5 (Homo sapiens) (UniProt O76039)
[19] = molecular target: Dual specificity mitogen-activated protein kinase kinase 5 (Homo sapiens) (UniProt Q13163)
[20] = molecular target: Casein kinase I isoform alpha (Homo sapiens) (UniProt P48729)
[21] = molecular target: Muscarinic acetylcholine receptor M4 (Homo sapiens) (UniProt P08173); conditions: Compound concentration 10.0 uM
[22] = molecular target: NUAK family SNF1-like kinase 2 (Homo sapiens) (UniProt Q9H093)
[23] = molecular target: STE20/SPS1-related proline-alanine-rich protein kinase (Homo sapiens) (UniProt Q9UEW8)
[24] = molecular target: Aurora kinase A (Homo sapiens) (UniProt O14965)
[25] = molecular target: Protein kinase C delta type (Homo sapiens) (UniProt Q05655)
[26] = system: Tyrosine-protein kinase ABL1 (Homo sapiens), P00519 [Y253F]
[27] = molecular target: Serine/threonine-protein kinase N1 (Homo sapiens) (UniProt Q16512)
[28] = system: Mast/stem cell growth factor receptor Kit (Homo sapiens), P10721 [D816V]
[29] = molecular target: Tyrosine-protein kinase Tec (Homo sapiens) (UniProt P42680)
[30] = molecular target: Cyclin-dependent kinase 18 (Homo sapiens) (UniProt Q07002)
[31] = molecular target: Tyrosine-protein kinase Fyn (Homo sapiens) (UniProt P06241)
[32] = molecular target: Homeodomain-interacting protein kinase 3 (Homo sapiens) (UniProt Q9H422)
[33] = molecular target: Cyclin-dependent kinase-like 2 (Homo sapiens) (UniProt Q92772)
[34] = molecular target: Casein kinase II subunit alpha' (Homo sapiens) (UniProt P19784)
[35] = system: Receptor-type tyrosine-protein kinase FLT3 (Homo sapiens), P36888 [N841I]
[36] = molecular target: Casein kinase II subunit alpha (Homo sapiens) (UniProt P68400)
[37] = molecular target: Ephrin type-A receptor 7 (Homo sapiens) (UniProt Q15375)
[38] = molecular target: Serine/threonine-protein kinase D2 (Homo sapiens) (UniProt Q9BZL6)
[39] = molecular target: Ephrin type-B receptor 3 (Homo sapiens) (UniProt P54753)
[40] = system: Epidermal growth factor receptor (Homo sapiens), P00533 [G719C]
[41] = molecular target: Ribosomal protein S6 kinase alpha-1 (Homo sapiens) (UniProt Q15418)
[42] = molecular target: 5-hydroxytryptamine receptor 1A (Homo sapiens) (UniProt P08908); conditions: Compound concentration 10.0 uM
[43] = molecular target: Dual specificity mitogen-activated protein kinase kinase 4 (Homo sapiens) (UniProt P45985)
[44] = molecular target: Serine/threonine-protein kinase Nek1 (Homo sapiens) (UniProt Q96PY6)
[45] = molecular target: Aurora kinase C (Homo sapiens) (UniProt Q9UQB9)
[46] = molecular target: Dual specificity mitogen-activated protein kinase kinase 1 (Homo sapiens) (UniProt Q02750)
[47] = Compound concentration 1000.0 nM
[48] = Compound concentration 100.0 nM

Serine/threonine-protein kinase LATS2 (Homo sapiens), sequence (Q9NRM7 whole entry): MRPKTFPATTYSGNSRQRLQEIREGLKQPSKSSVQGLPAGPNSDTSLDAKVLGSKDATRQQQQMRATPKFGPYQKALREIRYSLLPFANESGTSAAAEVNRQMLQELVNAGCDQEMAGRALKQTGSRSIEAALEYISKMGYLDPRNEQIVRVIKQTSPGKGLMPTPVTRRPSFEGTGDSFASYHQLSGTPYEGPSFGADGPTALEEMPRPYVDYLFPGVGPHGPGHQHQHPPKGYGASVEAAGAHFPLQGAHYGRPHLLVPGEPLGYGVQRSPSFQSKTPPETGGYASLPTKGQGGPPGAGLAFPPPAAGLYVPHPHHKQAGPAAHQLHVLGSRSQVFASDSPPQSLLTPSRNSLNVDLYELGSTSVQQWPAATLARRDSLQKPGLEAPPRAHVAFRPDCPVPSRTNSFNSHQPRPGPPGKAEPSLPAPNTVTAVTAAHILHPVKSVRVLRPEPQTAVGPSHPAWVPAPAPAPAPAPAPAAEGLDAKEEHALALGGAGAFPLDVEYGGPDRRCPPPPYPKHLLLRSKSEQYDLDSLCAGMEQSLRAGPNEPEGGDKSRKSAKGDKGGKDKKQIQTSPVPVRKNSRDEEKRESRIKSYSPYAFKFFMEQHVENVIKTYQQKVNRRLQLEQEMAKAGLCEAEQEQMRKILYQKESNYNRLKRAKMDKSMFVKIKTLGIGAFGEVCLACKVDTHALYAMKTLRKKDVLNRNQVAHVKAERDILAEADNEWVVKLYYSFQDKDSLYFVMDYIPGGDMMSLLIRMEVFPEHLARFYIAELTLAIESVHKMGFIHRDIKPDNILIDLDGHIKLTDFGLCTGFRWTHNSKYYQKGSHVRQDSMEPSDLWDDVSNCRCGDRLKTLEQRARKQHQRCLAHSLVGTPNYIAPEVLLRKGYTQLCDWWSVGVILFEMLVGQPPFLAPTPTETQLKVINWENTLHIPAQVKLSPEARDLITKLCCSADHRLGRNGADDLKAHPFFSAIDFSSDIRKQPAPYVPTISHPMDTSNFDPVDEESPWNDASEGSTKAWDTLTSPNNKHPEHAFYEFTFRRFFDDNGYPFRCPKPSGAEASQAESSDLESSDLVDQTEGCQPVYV
Tyrosine-protein kinase Tec (Homo sapiens), sequence (P42680 whole entry): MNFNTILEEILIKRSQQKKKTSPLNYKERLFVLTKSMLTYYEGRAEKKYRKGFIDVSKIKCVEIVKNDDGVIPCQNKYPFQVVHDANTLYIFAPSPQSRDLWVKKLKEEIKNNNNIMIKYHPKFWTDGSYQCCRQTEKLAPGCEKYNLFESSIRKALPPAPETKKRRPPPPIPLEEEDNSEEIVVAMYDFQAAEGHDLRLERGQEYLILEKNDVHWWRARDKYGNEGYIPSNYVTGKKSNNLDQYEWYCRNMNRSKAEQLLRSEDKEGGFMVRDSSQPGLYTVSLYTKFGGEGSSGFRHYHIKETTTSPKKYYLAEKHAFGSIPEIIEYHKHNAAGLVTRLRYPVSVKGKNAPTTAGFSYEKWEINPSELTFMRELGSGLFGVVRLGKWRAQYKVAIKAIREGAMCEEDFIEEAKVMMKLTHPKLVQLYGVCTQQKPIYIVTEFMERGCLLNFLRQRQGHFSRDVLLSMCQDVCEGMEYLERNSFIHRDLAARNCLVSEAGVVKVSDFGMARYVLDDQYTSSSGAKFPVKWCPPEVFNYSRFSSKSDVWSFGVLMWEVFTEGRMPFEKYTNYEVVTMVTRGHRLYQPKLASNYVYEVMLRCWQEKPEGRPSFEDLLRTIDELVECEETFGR
Serine/threonine-protein kinase Sgk3 (Homo sapiens), sequence (Q96BR1 whole entry): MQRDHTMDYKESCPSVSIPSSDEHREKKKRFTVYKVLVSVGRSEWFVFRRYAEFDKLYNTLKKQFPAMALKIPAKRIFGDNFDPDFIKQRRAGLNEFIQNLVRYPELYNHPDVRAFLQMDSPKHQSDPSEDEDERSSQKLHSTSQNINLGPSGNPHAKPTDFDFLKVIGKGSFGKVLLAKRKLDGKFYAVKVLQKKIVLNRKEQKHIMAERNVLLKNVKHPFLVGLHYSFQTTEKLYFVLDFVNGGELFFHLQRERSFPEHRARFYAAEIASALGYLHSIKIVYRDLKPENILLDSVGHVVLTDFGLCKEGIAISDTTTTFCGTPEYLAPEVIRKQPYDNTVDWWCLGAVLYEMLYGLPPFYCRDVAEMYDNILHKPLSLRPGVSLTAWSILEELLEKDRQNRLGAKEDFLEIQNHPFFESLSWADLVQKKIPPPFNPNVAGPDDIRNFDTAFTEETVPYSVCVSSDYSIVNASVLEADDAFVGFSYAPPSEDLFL
Ribosomal protein S6 kinase alpha-1 (Homo sapiens), sequence (Q15418 whole entry): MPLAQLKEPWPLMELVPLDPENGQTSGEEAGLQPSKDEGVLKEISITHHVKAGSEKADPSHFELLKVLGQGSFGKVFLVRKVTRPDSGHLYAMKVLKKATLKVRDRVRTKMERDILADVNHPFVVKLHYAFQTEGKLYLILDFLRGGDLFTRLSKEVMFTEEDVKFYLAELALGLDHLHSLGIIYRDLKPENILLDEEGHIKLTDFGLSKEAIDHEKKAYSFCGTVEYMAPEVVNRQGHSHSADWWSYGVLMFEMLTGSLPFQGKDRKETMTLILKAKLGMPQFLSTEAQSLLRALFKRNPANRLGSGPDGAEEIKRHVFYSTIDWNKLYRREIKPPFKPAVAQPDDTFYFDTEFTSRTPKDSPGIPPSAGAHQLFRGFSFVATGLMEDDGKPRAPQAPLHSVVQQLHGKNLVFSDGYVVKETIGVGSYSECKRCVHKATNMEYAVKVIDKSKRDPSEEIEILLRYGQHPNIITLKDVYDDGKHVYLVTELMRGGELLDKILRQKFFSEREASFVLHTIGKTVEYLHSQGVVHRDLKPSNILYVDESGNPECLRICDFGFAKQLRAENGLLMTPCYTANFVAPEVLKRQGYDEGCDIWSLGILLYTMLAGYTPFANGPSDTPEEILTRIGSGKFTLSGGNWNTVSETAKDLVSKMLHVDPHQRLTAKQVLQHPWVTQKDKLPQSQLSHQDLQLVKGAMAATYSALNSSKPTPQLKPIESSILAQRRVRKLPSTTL
5-hydroxytryptamine receptor 1A (Homo sapiens), sequence (P08908 whole entry): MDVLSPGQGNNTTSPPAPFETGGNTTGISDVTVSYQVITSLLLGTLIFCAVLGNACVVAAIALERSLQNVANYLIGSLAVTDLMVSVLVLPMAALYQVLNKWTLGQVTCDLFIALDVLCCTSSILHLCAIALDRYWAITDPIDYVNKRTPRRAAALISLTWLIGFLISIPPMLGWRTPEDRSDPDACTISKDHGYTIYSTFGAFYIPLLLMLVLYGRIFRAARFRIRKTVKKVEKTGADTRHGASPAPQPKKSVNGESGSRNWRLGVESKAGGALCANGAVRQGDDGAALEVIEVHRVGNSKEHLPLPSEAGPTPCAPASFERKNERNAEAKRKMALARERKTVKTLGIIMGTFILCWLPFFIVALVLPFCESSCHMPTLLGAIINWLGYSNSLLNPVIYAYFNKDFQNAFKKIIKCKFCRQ
Muscarinic acetylcholine receptor M3 (Homo sapiens), sequence (P20309 whole entry, looked up): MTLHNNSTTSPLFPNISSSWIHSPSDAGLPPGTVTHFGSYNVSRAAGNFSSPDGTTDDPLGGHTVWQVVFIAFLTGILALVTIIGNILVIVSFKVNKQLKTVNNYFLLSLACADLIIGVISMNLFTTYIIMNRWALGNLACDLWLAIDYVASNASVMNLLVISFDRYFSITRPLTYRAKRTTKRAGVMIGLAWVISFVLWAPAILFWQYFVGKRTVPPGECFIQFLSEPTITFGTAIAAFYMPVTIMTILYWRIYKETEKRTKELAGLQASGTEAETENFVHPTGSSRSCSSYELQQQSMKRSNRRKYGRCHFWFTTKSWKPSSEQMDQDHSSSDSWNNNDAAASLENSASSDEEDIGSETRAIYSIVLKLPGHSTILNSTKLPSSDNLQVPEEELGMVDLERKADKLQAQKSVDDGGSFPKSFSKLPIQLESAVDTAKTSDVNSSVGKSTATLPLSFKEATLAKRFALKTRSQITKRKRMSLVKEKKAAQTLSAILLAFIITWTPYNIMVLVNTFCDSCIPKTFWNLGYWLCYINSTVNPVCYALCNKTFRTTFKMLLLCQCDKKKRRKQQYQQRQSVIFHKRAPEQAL
NUAK family SNF1-like kinase 2 (Homo sapiens), sequence (Q9H093 whole entry): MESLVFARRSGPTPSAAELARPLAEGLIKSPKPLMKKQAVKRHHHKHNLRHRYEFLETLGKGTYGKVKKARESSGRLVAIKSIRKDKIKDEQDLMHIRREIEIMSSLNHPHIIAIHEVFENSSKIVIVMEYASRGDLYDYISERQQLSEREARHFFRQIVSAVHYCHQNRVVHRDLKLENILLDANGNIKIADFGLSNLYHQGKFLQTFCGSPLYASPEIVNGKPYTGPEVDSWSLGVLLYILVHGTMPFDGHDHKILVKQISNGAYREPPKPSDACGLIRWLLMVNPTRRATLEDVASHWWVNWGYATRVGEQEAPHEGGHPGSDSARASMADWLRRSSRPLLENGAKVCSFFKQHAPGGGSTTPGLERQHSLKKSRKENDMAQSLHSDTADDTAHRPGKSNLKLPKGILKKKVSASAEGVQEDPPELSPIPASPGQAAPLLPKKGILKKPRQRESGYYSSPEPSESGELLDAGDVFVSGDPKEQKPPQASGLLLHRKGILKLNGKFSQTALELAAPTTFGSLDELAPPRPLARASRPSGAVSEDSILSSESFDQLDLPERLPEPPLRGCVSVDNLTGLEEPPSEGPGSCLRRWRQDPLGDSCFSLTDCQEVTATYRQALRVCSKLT
Mitogen-activated protein kinase 13 (Homo sapiens), sequence (O15264 whole entry): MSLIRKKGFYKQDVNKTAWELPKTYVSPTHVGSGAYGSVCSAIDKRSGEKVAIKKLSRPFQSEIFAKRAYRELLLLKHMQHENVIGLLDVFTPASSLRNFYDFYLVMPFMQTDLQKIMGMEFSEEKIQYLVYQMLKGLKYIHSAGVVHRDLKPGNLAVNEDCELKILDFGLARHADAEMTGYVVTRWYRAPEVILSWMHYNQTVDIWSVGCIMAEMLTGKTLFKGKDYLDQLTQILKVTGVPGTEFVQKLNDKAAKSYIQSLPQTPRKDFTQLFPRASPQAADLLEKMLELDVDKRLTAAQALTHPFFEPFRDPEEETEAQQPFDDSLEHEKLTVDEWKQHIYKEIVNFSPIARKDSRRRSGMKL

For `CN(C)c1ncnc(-c2ccc3nc(Nc4cc(CN5CCN(C(=O)CC(F)(F)F)CC5)ccn4)[nH]c3c2)c1Cl` [BAY-440], the residual activity [1, 47] was 81%, the residual activity [2, 47] was 99% and the residual activity [3, 47] was 100%. It also gave a residual activity [4, 47] of 53%, a residual activity [5, 47] of 52% and a residual activity [6, 47] of 78%. It also gave a residual activity [7, 47] of 69%, a residual activity [8, 47] of 37% and a residual activity [9, 47] of 95%. It also gave a residual activity [10, 47] of 92%, an inhibition [11] of 23.9% and a residual activity [12, 47] of 100%. The residual activity [13, 47] was 72%, the residual activity [14, 47] was 100% and the residual activity [15, 47] was 91%. For the same molecule, the residual activity [16, 47] was 86%, the residual activity [17, 47] was 100% and the residual activity [18, 47] was 66%. It also gave a residual activity [19, 47] of 1.8%, a residual activity [20, 47] of 89% and an inhibition [21] of 4.83%. It also gave a residual activity [22, 47] of 66%, a residual activity [23, 47] of 69% and a residual activity [24, 47] of 84%. It also gave a residual activity [25, 47] of 100%, a residual activity [26, 47] of 37% and a residual activity [27, 47] of 100%. It also gave a residual activity [28, 47] of 97%, a residual activity [29, 47] of 100% and a residual activity [30, 47] of 100%. For the same molecule, the residual activity [31, 47] was 68%, the residual activity [32, 47] was 100% and the residual activity [33, 47] was 100%. The residual activity [34, 47] was 78%, the residual activity [35, 47] was 53% and the residual activity [36, 47] was 80%. For the same molecule, the residual activity [37, 47] was 100%, the residual activity [38, 47] was 84% and the residual activity [39, 47] was 100%. The residual activity [40, 47] was 88%, the residual activity [41, 47] was 98% and the inhibition [42] was 13.9%. For the same molecule, the residual activity [43, 47] was 92%, the residual activity [44, 47] was 88% and the residual activity [45, 47] was 100%. For the same molecule, the residual activity [46, 47] was 78%.
With `C[C@H](c1ccnc(Nc2nc3ccc(-c4cc(N(C)C)ncn4)cc3[nH]2)c1)N1CCN(C(=O)CC(F)(F)F)CC1` [BAY-985] the residual activity [1, 48] was 100%, the residual activity [2, 48] was 96% and the residual activity [3, 48] was 100%. The residual activity [4, 48] was 80%, the residual activity [5, 48] was 100% and the residual activity [6, 48] was 100%. It also gave a residual activity [7, 48] of 95%, a residual activity [8, 48] of 94% and a residual activity [9, 48] of 97%. The residual activity [10, 48] was 100%, the inhibition [11] was -8.4% and the residual activity [12, 48] was 80%. The residual activity [13, 48] was 100%, the residual activity [14, 48] was 100% and the residual activity [15, 48] was 100%. The residual activity [16, 48] was 100%, the residual activity [17, 48] was 76% and the residual activity [18, 48] was 100%. The residual activity [19, 48] was 8.5%, the residual activity [20, 48] was 100% and the inhibition [21] was 24.7%. It also gave a residual activity [22, 48] of 95%, a residual activity [23, 48] of 100% and a residual activity [24, 48] of 100%. It also gave a residual activity [25, 48] of 100%, a residual activity [26, 48] of 91% and a residual activity [27, 48] of 100%. The residual activity [28, 48] was 96%, the residual activity [29, 48] was 100% and the residual activity [30, 48] was 89%. The residual activity [31, 48] was 79%, the residual activity [32, 48] was 100% and the residual activity [33, 48] was 100%. It also gave a residual activity [34, 48] of 100%, a residual activity [35, 48] of 43% and a residual activity [36, 48] of 100%. The residual activity [37, 48] was 100%, the residual activity [38, 48] was 100% and the residual activity [39, 48] was 93%. The residual activity [40, 48] was 84%, the residual activity [41, 48] was 82% and the inhibition [42] was 6.47%. For the same molecule, the residual activity [43, 48] was 100%, the residual activity [44, 48] was 93% and the residual activity [45, 48] was 100%. The residual activity [46, 48] was 99%.
